Measurements taken from ChEMBL document CHEMBL5465560, “Selectivity Literature for EUbOPEN Chemogenomic Library” (2024).

Key:
[1] = biological target: Mitogen-activated protein kinase 10 (Homo sapiens, UniProt P53779); experiment: Selectivity interaction (Millipore kinase profiler) EUB0000124b MAPK10; settings: at 10 µM
[2] = biological target: T1, Aurora kinase C (Homo sapiens) (UniProt Q9UQB9); experiment: Selectivity interaction (Kinase panel (Invitrogen)) EUB0000639a AURKC; settings: at 200 nM
T1 sequence (whole entry): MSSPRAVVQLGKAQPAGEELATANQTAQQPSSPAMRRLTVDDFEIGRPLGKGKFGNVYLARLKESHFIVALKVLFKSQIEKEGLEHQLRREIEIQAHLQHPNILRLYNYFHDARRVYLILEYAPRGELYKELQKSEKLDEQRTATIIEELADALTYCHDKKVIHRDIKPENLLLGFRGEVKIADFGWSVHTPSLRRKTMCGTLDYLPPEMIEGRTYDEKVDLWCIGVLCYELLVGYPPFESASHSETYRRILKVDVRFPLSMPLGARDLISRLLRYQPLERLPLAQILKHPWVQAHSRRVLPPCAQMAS

[3] = biological target: Voltage-dependent N-type calcium channel subunit alpha-1B (Homo sapiens) (UniProt Q00975); experiment: Selectivity interaction (Eurofins CEREP Diversity Profile (receptors and ion channels)) EUB0000279b CACNA1B; settings: at 10 µM
[4] = biological target: Rho-associated protein kinase 2 (Homo sapiens, UniProt O75116); experiment: Selectivity interaction (ProQinase) EUB0000171b ROCK2
[5] = biological target: T2, Mitogen-activated protein kinase kinase kinase 5 (Homo sapiens) (UniProt Q99683); experiment: Selectivity interaction (KinomeScan (DiscoverX)) EUB0001619a MAP3K5; settings: at 1 µM
T2 sequence (whole entry): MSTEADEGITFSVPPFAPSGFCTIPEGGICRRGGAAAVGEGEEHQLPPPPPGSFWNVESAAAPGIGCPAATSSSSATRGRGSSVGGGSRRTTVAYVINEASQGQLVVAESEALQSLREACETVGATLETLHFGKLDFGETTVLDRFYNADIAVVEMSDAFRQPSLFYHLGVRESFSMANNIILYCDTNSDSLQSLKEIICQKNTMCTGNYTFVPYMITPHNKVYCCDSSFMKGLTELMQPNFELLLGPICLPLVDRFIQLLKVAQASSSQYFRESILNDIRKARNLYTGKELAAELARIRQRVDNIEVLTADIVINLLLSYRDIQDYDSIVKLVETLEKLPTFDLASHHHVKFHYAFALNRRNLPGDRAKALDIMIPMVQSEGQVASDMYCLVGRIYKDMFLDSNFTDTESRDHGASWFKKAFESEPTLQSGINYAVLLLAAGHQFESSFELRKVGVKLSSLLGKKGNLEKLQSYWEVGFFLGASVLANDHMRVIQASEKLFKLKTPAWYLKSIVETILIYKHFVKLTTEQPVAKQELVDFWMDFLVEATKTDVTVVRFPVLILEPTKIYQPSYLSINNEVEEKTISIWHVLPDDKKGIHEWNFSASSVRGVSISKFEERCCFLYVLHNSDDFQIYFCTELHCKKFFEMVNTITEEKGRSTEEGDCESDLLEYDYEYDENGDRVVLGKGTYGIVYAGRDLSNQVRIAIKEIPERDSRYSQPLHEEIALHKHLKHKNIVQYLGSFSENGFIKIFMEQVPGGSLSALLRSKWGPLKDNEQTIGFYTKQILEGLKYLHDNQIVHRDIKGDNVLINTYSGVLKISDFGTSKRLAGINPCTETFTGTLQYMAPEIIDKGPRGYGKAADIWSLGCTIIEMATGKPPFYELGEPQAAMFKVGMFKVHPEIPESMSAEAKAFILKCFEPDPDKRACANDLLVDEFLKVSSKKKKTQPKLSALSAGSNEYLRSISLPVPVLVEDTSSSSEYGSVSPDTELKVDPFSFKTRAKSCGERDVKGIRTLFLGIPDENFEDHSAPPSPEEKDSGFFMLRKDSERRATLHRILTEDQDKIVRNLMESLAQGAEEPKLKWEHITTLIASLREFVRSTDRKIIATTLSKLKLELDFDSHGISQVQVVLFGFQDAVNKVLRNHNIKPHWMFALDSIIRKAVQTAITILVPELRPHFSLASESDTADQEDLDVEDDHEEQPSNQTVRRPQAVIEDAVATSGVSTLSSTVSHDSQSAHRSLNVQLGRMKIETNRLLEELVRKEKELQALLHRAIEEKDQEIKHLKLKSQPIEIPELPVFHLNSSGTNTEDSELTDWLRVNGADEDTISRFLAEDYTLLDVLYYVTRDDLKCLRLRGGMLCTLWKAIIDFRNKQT

Activated CDC42 kinase 1 = Activated CDC42 kinase 1 (Homo sapiens, UniProt Q07912); experiment: Selectivity interaction (KinomeScan (DiscoverX)) EUB0000618a TNK2; settings: at 10 µM
[6] = biological target: T3, MAP/microtubule affinity-regulating kinase 4 (Homo sapiens) (UniProt Q96L34); experiment: Selectivity interaction (KinomeScan (DiscoverX)) EUB0000607a MARK4; settings: at 10 µM
T3 sequence (whole entry): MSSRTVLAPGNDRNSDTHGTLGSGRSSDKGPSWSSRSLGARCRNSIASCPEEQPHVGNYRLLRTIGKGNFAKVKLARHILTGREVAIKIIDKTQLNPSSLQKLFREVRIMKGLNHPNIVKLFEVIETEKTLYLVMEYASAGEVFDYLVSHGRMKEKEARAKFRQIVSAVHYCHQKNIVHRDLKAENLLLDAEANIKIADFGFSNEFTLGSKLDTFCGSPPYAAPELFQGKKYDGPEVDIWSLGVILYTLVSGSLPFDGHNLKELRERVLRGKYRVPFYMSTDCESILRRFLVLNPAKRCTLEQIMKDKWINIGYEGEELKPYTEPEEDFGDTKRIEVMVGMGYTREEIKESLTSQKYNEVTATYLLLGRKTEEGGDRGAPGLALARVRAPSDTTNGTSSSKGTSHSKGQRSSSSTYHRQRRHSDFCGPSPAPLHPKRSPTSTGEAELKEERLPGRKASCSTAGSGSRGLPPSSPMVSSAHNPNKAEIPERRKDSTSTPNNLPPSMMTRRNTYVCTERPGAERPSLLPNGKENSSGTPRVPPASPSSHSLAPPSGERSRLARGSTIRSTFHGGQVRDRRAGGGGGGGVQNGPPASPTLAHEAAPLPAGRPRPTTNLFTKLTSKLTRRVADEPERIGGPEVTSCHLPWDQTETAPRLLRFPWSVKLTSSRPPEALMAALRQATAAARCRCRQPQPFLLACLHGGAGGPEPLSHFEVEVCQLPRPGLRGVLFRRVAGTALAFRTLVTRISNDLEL

[7] = biological target: Mitogen-activated protein kinase 7 (Homo sapiens) (UniProt Q13164); experiment: Selectivity interaction (KinomeScan (DiscoverX)) EUB0000666a MAPK7; settings: at 10 µM
[8] = biological target: Cannabinoid receptor 2 (Homo sapiens) (UniProt P34972); experiment: Selectivity interaction (Panel of kinases, GPCRs, ion channels and transporters (enzymatic assay)) EUB0000223bCl CNR2
Sequence of Cannabinoid receptor 2 (Homo sapiens) (P34972 whole entry): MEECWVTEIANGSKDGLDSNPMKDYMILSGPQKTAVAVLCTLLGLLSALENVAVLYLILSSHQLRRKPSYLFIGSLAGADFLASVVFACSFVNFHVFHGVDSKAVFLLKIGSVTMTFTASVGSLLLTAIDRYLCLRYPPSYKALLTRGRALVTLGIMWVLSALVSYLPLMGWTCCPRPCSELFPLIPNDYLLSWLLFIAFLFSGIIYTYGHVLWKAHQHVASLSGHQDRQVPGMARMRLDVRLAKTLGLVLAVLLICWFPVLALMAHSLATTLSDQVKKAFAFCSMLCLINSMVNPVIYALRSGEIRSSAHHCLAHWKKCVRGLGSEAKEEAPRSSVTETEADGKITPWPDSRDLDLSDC

Sequence of Rho-associated protein kinase 2 (O75116 whole entry, looked up): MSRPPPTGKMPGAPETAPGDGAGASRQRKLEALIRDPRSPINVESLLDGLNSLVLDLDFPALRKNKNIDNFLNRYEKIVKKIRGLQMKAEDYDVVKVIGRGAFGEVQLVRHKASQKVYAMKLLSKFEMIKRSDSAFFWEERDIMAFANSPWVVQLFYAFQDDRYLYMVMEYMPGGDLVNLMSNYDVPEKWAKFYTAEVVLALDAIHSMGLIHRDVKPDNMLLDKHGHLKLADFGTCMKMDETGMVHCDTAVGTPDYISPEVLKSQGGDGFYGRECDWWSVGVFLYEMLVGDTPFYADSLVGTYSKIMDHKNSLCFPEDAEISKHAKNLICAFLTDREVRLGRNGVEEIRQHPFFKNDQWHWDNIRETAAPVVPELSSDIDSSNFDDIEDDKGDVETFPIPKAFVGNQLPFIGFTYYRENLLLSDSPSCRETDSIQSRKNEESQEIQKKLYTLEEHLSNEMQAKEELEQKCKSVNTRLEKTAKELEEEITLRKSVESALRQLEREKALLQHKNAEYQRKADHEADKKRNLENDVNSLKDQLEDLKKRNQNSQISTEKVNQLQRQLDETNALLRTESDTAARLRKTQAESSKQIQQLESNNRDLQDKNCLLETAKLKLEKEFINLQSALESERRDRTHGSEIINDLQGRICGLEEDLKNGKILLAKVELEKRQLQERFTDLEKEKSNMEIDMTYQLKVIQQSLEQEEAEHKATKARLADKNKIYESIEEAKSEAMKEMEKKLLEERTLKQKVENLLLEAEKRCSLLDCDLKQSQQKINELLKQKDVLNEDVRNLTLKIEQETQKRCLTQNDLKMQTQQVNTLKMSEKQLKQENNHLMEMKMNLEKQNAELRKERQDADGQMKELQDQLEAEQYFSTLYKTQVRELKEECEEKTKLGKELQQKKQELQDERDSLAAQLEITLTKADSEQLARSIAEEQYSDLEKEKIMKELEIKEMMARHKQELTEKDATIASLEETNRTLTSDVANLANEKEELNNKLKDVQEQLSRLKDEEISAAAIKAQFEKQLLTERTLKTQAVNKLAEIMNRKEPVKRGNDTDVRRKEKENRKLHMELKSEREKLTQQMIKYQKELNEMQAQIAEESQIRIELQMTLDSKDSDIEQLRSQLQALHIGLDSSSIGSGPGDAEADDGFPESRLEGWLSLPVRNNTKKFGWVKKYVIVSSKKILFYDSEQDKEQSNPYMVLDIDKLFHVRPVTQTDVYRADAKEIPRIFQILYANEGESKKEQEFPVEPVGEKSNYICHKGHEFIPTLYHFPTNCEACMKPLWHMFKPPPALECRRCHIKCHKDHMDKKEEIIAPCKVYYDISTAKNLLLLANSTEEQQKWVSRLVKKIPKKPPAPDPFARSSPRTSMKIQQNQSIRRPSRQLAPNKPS
Sequence of Mitogen-activated protein kinase 7 (Homo sapiens) (Q13164 2-816 limits assumed): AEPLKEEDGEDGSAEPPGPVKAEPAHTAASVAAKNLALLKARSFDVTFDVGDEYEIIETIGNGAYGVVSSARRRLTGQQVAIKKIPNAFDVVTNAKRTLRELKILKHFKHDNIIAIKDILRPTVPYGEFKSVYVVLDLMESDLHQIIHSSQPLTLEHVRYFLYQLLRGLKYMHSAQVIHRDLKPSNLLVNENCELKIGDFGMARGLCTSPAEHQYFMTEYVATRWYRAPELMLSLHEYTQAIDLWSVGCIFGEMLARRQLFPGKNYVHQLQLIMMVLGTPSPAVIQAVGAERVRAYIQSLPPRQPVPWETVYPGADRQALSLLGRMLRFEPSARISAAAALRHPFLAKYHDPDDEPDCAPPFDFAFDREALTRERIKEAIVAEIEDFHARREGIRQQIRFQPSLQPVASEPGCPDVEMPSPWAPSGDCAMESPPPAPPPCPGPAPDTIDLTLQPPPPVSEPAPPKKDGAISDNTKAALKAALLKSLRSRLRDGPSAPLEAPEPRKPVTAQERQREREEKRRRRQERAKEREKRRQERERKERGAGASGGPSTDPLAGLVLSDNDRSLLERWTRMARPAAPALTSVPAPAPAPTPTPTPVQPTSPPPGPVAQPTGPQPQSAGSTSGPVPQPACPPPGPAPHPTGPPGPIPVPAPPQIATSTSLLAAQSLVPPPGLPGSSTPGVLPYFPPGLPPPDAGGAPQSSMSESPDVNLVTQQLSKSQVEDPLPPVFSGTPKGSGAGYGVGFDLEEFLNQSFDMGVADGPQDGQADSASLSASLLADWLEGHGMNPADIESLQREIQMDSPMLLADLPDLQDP
Sequence of Activated CDC42 kinase 1 (Q07912 whole entry, looked up): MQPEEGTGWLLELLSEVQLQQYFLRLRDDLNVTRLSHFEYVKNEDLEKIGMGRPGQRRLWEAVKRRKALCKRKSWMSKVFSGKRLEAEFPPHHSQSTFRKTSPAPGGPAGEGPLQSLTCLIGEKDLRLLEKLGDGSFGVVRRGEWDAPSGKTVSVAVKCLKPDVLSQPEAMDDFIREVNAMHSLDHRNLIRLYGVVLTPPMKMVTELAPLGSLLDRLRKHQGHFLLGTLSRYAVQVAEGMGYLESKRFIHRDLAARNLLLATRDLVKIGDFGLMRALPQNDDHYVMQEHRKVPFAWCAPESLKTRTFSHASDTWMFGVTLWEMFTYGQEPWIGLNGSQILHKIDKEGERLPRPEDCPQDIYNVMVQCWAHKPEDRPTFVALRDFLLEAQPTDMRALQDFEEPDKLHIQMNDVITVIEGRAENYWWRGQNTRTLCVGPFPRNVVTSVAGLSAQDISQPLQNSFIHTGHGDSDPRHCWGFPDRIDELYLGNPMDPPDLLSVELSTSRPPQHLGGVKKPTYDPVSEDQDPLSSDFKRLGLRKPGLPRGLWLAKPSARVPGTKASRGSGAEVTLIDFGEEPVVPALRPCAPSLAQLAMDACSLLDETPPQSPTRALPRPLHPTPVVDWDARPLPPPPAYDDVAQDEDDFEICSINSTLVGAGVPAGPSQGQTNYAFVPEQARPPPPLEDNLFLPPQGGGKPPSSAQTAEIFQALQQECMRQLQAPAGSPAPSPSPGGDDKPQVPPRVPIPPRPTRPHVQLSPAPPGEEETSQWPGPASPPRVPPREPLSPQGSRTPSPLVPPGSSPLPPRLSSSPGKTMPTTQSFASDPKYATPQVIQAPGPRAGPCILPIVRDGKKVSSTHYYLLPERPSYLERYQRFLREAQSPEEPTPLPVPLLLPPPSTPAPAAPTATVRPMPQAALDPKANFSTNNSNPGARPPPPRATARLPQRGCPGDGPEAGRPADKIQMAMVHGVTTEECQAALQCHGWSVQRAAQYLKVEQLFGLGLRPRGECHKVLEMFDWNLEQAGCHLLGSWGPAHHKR
Sequence of Mitogen-activated protein kinase 10 (P53779 whole entry): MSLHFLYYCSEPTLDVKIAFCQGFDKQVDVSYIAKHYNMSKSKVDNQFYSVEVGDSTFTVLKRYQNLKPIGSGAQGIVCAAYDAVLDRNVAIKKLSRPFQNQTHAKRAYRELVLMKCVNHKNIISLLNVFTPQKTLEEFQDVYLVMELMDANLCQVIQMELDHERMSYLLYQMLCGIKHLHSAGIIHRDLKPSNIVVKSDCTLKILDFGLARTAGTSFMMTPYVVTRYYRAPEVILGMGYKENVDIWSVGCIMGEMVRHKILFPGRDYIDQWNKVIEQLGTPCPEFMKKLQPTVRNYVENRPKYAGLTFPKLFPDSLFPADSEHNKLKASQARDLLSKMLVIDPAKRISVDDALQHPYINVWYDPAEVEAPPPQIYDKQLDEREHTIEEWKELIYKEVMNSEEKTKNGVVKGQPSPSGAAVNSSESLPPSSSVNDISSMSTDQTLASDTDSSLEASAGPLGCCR

Compound: CC(=O)Nc1cccc(-n2c(=O)n(C3CC3)c(=O)c3c(Nc4ccc(I)cc4F)n(C)c(=O)c(C)c32)c1
- % of control [1]: 76%

Compound: CC[C@@H]1[C@H](F)C(=O)N[C@@H]1COc1nccc2cc(C(N)=O)c(OC)cc12 [ZIMLOVISERTIB]
- % of inhibition [2]: 2.66%

Compound: CC(=O)c1cc(-c2ccccc2OCC2CC2)c2ncccn12
- % of control [3]: 115%

Compound: C=CC(=O)Nc1cccc(C(=O)Nc2ccc(Nc3cc(-c4[nH]c(SC)nc4C)ccn3)cc2)c1
- % of control ([4]; at 1 µM): 95%
- % of control ([4]; at 5 µM): 75%

Compound: N#Cc1cccc(-c2c[nH]c3ncnc(N4CCOCC4)c23)c1
- % of control [5]: 26%

Compound: O[C@H]1CC[C@H](Nc2ncc3nc(Nc4c(F)cc(F)cc4F)n([C@H]4CCOC4)c3n2)CC1
- % of control (Activated CDC42 kinase 1): 100%

Compound: CNC(=O)Nc1ccc(-c2nc(N3CC4CCC(C3)O4)c3cnn(C4CCC5(CC4)OCCO5)c3n2)cc1
- % of control [6]: 94%

Compound: O=C(NOC[C@H](O)CO)c1ccc(F)c(F)c1Nc1ccc(I)cc1F
- % of control [7]: 88%

Compound: COc1cc(C(=O)N2CC[C@@H](O)[C@@H](N)C2)cc2nc(-c3cc4ccccc4n3CC3CC3)n(C)c12
- pXC50 [8]: < 4.5 M
